Measured values from patent publication US20160130311A1, “T CELL EPITOPES DERIVED FROM ALT A 1 OR ALT A 5 FOR THE TREATMENT OF ALTERNARIA ALTERNATA ALLERGY” (priority 2013, published 2016).
“Also recorded” adds a separate entry of the source.

Test system: T cells expanded for 14 days with allergen extract and IL-2
Assay: not given
Settings: allergic population; cited from earlier work

Row | Molecule | IL-5 and INF-γ ELISPOT result
1 | CC[C@H](C)[C@H](N)C(=O)N[C@@H](C)C(=O)N[C@@H](CO)C(=O)N[C@@H](CC(C)C)C(=O)N[C@@H](Cc1ccccc1)C(=O)N[C@@H](C)C(=O)N[C@@H](C)C(=O)N[C@@H](C)C(=O)NCC(=O)N[C@@H](CC(C)C)C(=O)N[C@@H](C)C(=O)N[C@@H](C)C(=O)N[C@@H](C)C(=O)N[C@@H](C)C(=O)N1CCC[C@H]1C(=O)O [p6-20] | positive for IL-5 only
2 | CC[C@H](C)[C@H](NC(=O)[C@H](Cc1ccc(O)cc1)NC(=O)[C@H](C)NC(=O)[C@H](CC(=O)O)NC(=O)[C@H](C)NC(=O)[C@@H](N)C(C)C)C(=O)N[C@H](C(=O)N[C@@H](CC(C)C)C(=O)N[C@H](C(=O)N[C@H](C(=O)N[C@@H](CC(C)C)C(=O)N1CCC[C@H]1C(=O)N[C@@H](CCCCN)C(=O)N[C@@H](CO)C(=O)N[C@@H](CO)C(=O)O)[C@@H](C)O)C(C)C)[C@@H](C)O [p143-157] | positive for IL-5 only
3 | H-LQFTTIASLFAAAGL-OH [p1-15] | negative to both cytokines

Test system: PBMCs of Alternaria allergic patients and control subjects
Assay: IL-4 ELISPOT of PBMCs exposed to peptide
Type: cell-based, human
Settings: Alt a 5 peptide; three Alternaria patients; methods as Example 1
From the text: Peripheral blood was obtained by venipuncture from Alternaria allergic patients and non-sensitized controls. Peripheral blood mononuclear cells (PBMCs) were isolated from heparinized blood by standard Ficoll density gradient centrifugation. PBMCs were washed with CTL (Cellular Technology Limited, Cleveland, Ohio, USA) wash medium containing RPMI-1640 with L-glutamine (Lonza, Basel, Switzerland) before being counted by haemocytometer using trypan blue stain (Sigma). PBMCs (10 million/ml) were resuspended in CTL-Cryo ABC serum-free freezing medium according to the manufacturer's protocol before being frozen overnight at −80° C. and transferred to and stored in liquid nitrogen until time of use.
Enzyme-linked immunospot assay (ELISPOT) analysis was performed utilizing 16 Alternaria patients and 11 controls. For an individual peptide the number of Alternaria patients tested ranged between 10-15 and the number of control subjects ranged between 7-9. Ten Alternaria patients were fully tested with all 22 peptides. For ELISPOT, the BD ELISPOT Human IL-4 Set (BD Biosciences, San Diego, Calif., USA) was used to analyze IL-4 production by human PBMCs. Plates were coated overnight at 4° C. with IL-4 capture antibody (BD Biosciences) and then washed 3 times with Dulbecco's Phosphate Buffer Saline (DPBS, Sigma). Plates were blocked with 1% BSA (Sigma) in PBS for 2 h at room temperature and washed 3 times with DPBS. Cryopreserved Alternaria patient and control subject PBMCs were thawed rapidly, washed, counted, and resuspended in CTL Test Medium supplemented with 2 mM L-glutamine (Sigma) and used at a concentration of 300,000 cells/well contained in 100 μl. […] The plates were dried and analyzed on the ImmunoSpot UV Core ELISPOT Plate Reader (Cellular Technology Limited).
The two-independent sample Wilcoxon rank sum test was used for statistical analysis of ELISPOT data (26). A one-sided control<patient p-value was determined except for peptides 7-21 and 143-157 where a one-sided patient >control p-value was calculated. […]
Two methods were evaluated to interpret the IL-4 ELISPOT spot count data. […]

Row | Molecule | activity in Alternaria patients (ELISPOT)
4 | H-AAYLLLGLGGNTSPS-OH [p5-19] | active in all 3 patients

Same assay, conditions: IL-4 ELISPOT, cut-off >9 spot counts

Row | Molecule | number of patients stimulated
5 | CC[C@H](C)[C@H](NC(=O)[C@H](Cc1ccc(O)cc1)NC(=O)[C@H](C)NC(=O)[C@H](CC(=O)O)NC(=O)[C@H](C)NC(=O)[C@@H](N)C(C)C)C(=O)N[C@H](C(=O)N[C@@H](CC(C)C)C(=O)N[C@H](C(=O)N[C@H](C(=O)N[C@@H](CC(C)C)C(=O)N1CCC[C@H]1C(=O)N[C@@H](CCCCN)C(=O)N[C@@H](CO)C(=O)N[C@@H](CO)C(=O)O)[C@@H](C)O)C(C)C)[C@@H](C)O [p143-157] | one
6 | H-LQFTTIASLFAAAGL-OH [p1-15] | one

Test system: not listed separately
Assay: Peptide solubility in sterile pure water
Type: physicochemical
Settings: not given
Method: The theoretical average peptide hydrophilicity was calculated using the Hopp and Woods scale (28). For solubility determination, peptides were dissolved in sterile pure water at 50mg/ml (pH=7), mixed, centrifuged and the presence of a pellet indicated insolubility. Insoluble peptides were sequentially diluted and tested down to 2.5mg/ml or until solubility was observed. Peptides not fully dissolved at 2.5mg/ml were considered insoluble in this study.

Row | solubility in H2O | Molecule
7 | insoluble | CC[C@H](C)[C@H](NC(=O)[C@H](Cc1ccc(O)cc1)NC(=O)[C@H](C)NC(=O)[C@H](CC(=O)O)NC(=O)[C@H](C)NC(=O)[C@@H](N)C(C)C)C(=O)N[C@H](C(=O)N[C@@H](CC(C)C)C(=O)N[C@H](C(=O)N[C@H](C(=O)N[C@@H](CC(C)C)C(=O)N1CCC[C@H]1C(=O)N[C@@H](CCCCN)C(=O)N[C@@H](CO)C(=O)N[C@@H](CO)C(=O)O)[C@@H](C)O)C(C)C)[C@@H](C)O [p143-157]
8 | soluble | H-EADAYITLVTLPKSS-OH [p143-157:V143E]
9 | insoluble | H-EDDITYVATATLPNY-OH [p113-127:S113E]
10 | insoluble | H-EKDFVVQGVADAYIT-OH [p135-149:P135E]
11 | insoluble | H-LQFTTIASLFAAAGL-OH [p1-15]
12 | insoluble | H-PKDFVVQGVADAYIT-OH [p135-149]
13 | insoluble | H-SKDFVVQGVADAYIT-OH [p135-149:P135S]
14 | soluble | H-SNSLGFNIKATNGGT-OH [p55-69:Y55S]
15 | soluble | H-STYYNSLGFNIKATN-OH [p52-66:G52S]

Further lines, the molecule ahead of its results:

Row | Molecule | solubility in H2O
16 | CC[C@H](C)[C@H](N)C(=O)N[C@@H](C)C(=O)N[C@@H](CO)C(=O)N[C@@H](CC(C)C)C(=O)N[C@@H](Cc1ccccc1)C(=O)N[C@@H](C)C(=O)N[C@@H](C)C(=O)N[C@@H](C)C(=O)NCC(=O)N[C@@H](CC(C)C)C(=O)N[C@@H](C)C(=O)N[C@@H](C)C(=O)N[C@@H](C)C(=O)N[C@@H](C)C(=O)N1CCC[C@H]1C(=O)O [p6-20] | insoluble
17 | H-AADAYITLVTLPKSS-OH [p143-157:V143A] | insoluble
18 | H-ANSLGFNIKATNGGT-OH [p55-69:Y55A] | soluble
19 | H-EETYYNSLGFNIKAT-OH [p51-65:G52E] | insoluble
20 | H-ENSLGFNIKATNGGT-OH [p55-69:Y55E] | soluble
21 | H-ESTYYNSLGFNIKAT-OH [p51-65:G52S] | soluble
22 | H-ETYYNSLGFNIKATN-OH [p52-66:G52E] | insoluble
23 | H-SADAYITLVTLPKSS-OH [p143-157:V143S] | soluble
24 | H-VNSLGFNIKATNGGT-OH [p55-69:Y55V] | insoluble

Same assay, conditions: sterile pure water pH=7, 50mg/ml diluted down to 2.5mg/ml; not fully dissolved at 2.5mg/ml = insoluble

Row | solubility in H2O | Molecule
25 | insoluble | H-EGTYYNSLGFNIKAT-OH [p51-65]
26 | insoluble | H-FTTIASLFAAAGLAA-OH [p3-17]
27 | insoluble | H-YNSLGFNIKATNGGT-OH [p55-69]

The next lines start with the molecule.

Row | Molecule | solubility in H2O
28 | H-ASLFAAAGLAAAAPL-OH [p7-21] | insoluble
29 | H-GTYYNSLGFNIKATN-OH [p52-66] | insoluble
30 | H-SDDITYVATATLPNY-OH [p113-127] | insoluble

Biological target: DRB1*0101, 0301, 0401, 0701, 1101, 1301,1501 (Homo sapiens, UniProt P01903+P01911, A100R/D57E/F55L/F60I/F76Y/I96L/L162R/M171V/P40L/Q125E/R42F/V115G/Y59C)
Assay: REVEAL Class II binding assay and Quick Check Stability Assay (MHC-peptide binding)
Settings: 7 DRB1 alleles; stability index ≧1.0 considered positive for MHC binding
Method: The MHC restriction of peptides from ProPred prediction were evaluated using the REVEAL Class II binding assay and Quick Check Stability Assay performed by ProImmune (Oxford, United Kingdom). In the REVEAL cell free in vitro assay, the binding of a peptide to an HLA molecule is determined by its ability to stabilize a MHC class II-peptide complex. Each MHC class II-peptide binding was scored relative to a validated proprietary T cell epitope control peptide. The score was determined as the percentage of the signal generated by the test peptide versus the level for the positive control peptide and reflects the on-rate properties of peptide. The off-rate properties of the peptide were determined by the Quick Check Stability Assay which measured the amount of peptide bound at time zero and time 24 hours at 37° C. The two signals were used to estimate a half-life which was multiplied by the REVEAL score and divided by 100 to yield the combined stability index. A stability index ≧1.0 was considered positive for MHC binding.
To confirm ProPred predictions and to validate peptides for continued analysis using IL-4 ELISPOT, an in vitro MHC-peptide binding assay was used to measure binding of 22/25 15mers (excluding p3-17, 42-56, and 43-57) to the 7 DRB1 alleles which accounted for the majority of the ProPred predictions (Table II). […] High stringency binding prediction rates were accurate for alleles *0301 (none predicted) and *1501 (none predicted), while inaccurate with low stringency positive binding prediction rates of 0% (0/10) and 25% (1/4), respectively. Both alleles *0301 and *1501 had low false negative rates of 8% (1/12) and 6% (1/18), respectively. ProPred was inaccurate at both high and low stringency for the three remaining alleles with a 0% binding prediction rate for *0701 (0/9), *1101 (0/14) and *1301 (0/7) but also yielding 0% false negative rates at 0/13, 0/8 and 0/14, respectively. […]

Row | Molecule | in vitro binding to DRB1 alleles
31 | H-EGDYVWKISEFYGRK-OH [p35-49] | non-binding; also recorded: no in vitro binding to any DRB1 allele
32 | H-RSGLLLKQKVSDDIT-OH [p103-117] | non-binding; also recorded: no in vitro binding to any DRB1 allele
33 | H-SGLLLKQKVSDDITY-OH [p104-118] | non-binding; also recorded: no in vitro binding to any DRB1 allele
